# Test results as given in patent US11639345B2, “Methionine metabolic pathway inhibitors” (MIGAL—GALILEE RESEARCH INSTITUTE LTD., priority 2018, dated 2023).
# How the values were obtained:
# [1] = system: E. coli lacking the endogenic MetB CGS gene, transformed to express the CGS from Arabidopsis; assay: Growth of engineered E. coli expressing Arabidopsis CGS in M9 minimal media, with and without methionine; type: cell-based; settings: for E. coli Assay LE395 (0-5): score 0-5, growth of E. coli with Arabidopsis CGS gene in M9 minimal media; for E. coli specificity (MOA): score, growth with vs without external methionine (40 mg/L)
# Description: In addition to the direct binding evaluation, specific assay to test the compounds activity and specificity were also developed. In this assay, E. coli cells, lacking the endogenic MetB CGS gene and transformed to express the CGS from Arabidopsis, were used. These cells were grown on M9 minimal media with and without external methionine supplemented to the cells, in the presence of the compounds of the embodiments. These selected compounds of the embodiments, capable of inhibiting the cell growth on M9, but incapable of affecting the cell growth when supplemented with methionine, were validated as methionine-pathway specific inhibitors.
# In this assay, Methionine auxotroph E. coli mutant was transformed with PQE-30 vector containing the Arabidopsis CGS gene as previously described in Yael Hacham et al., Plant Physiol., February 2002, 128(2): 454-462. In order to test the effect of the small molecule inhibitors on the CGS and methionine pathway, growth curves of the E. coli in M9 minimal media with […] were measured with and without the addition of external methionine (40 mg/L) in the presence of variable compound concentrations. E. coli growth curves were measured by following the optical density at 600 nm of bacteria in 96 well-plate placed within Tecan M200 plate reader in orbital shaking mode at 37° C. The slope of each curve was estimated using the ‘linest’ function in Excel.
# Tobacco CGS = target: T1, Tobacco CGS (Nicotiana tabacum, UniProt Q9ZPL5); assay: Micro Scale Thermophoresis (MST) direct binding to CGS; set-up: 6xHIS (N, cleaved yes); GB1 solubility tag (N, cleaved yes); made in house; host or cells: E. coli BL21; settings: score 0-5; binding to labelled Tobacco CGS
# T1 sequence (Q9ZPL5 79-540): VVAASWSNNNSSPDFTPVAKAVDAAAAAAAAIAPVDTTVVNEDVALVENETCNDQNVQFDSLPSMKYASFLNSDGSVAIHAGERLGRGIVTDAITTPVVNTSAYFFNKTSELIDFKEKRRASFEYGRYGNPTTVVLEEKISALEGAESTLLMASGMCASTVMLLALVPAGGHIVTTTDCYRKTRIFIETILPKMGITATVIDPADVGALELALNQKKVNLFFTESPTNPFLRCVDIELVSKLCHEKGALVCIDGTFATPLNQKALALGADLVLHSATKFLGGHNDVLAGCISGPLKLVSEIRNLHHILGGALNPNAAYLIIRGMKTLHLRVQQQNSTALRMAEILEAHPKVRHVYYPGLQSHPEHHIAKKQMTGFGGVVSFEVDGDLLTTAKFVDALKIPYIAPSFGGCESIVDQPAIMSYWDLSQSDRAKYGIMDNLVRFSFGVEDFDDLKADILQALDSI
# Description: The direct binding of the compounds of the embodiments to the CGS was tested by Micro Scale Thermophoresis (MST). In the MST assay, the CGS protein was labelled with a fluorophore, the samples were heated, and changes in fluorescence were measured as a function of the ligand concentration. In the MST assay, similar to the expression and purification described above, the recombinant Tobacco CGS protein was expressed in E. coli BL21 cells and purified to homogeneity. For that particular purpose, the pET-11 vector containing the DNA sequence of Tobacco CGS with an N-terminus […] tag followed by a TEV-cleavable GB1 solubility tag was cloned and transformed into the bacteria cells. Cells were cultured to OD=0.8, and protein expression was induced by the addition of 1 mM IPTG. The cells were cultured for additional 16 hours temperature 25° C. Following cellular lysis, the soluble fraction was passed through the nickel column and the bound HIS-tagged protein was eluted by 300 mM imidazole. Then, the tags […] and GB1 were cleaved in dialysis o/n and the mixtures passed again through the nickel column to separate the CGS from the TEV and HIS-GB1 constructs. As a final step the CGS was run on S75 size exclusion chromatography. Thus, the MST assay was performed to measure the biding of the compounds to the CGS protein. For this purpose, the CGS was labelled with commercially available amine reactive fluorophore (Cat # MO-[…], NanoTemper) according to the manufacture instructions. The MST binding curves were then measured using the Monolith NT.115 apparatus by incubating the labelled protein with the indicated compounds in a dose-response manner.
# Arabidopsis thaliana = Arabidopsis thaliana root growth inhibition; type: in vivo; settings: 168 h, root length ratio vs DMSO control, 50 μM compound, lower values indicate shorter root, larger effect, read-out: Arabidopsis (relative to DMSO)
# Description: Finally, FIGS. 7a-7o are the photos of the Arabidopsis thaliana plants and the inhibition of their roots growth by the compounds of the present invention. These experiments were conducted as follows. Seeds were washed with 70% ethanol for one minute and then with sterile water. Sterilisation was performed with 50% bleaching solution (3%) and 0.2% Triton x-100 for ten minutes followed by a five-time wash with sterile water. The seeds were placed in six well-plates with half Murashige and Skoog medium (MS; Duchefa, Haarlem, Netherlands), containing 1% sucrose (w/v), pH 5.8. The plates with Arabidopsis thaliana seeds were placed at 4° C. for two days and then transferred for seven days to growth chamber (22±2° C.) at day/light cycles of 16/8 h. The plates were placed vertically. In each plate, a control including 0.1% DMSO in the medium was added. The compounds of the present invention were tested for their herbicidal efficiency by diluting 1000 times a 50 mM stock in DMSO leading to a final concentration of 50 μM with 0.1% DMSO.
# In Tables 1, 2 and 4 above, Arabidopsis root length was measured after addition of 50-μM compound compared with the negative control (DMSO) treatment. Length values indicate the ratio between non-treated plates ([…]) and the length after the addition of 50 uM of each compound. Lower values indicate shorter root length, and consequently, larger effect.
# Roquette = Roquette assay spray; type: in vivo
SMILES,E. coli Assay LE395 (0-5) [1],E. coli specificity (MOA) [1],MST Tobacco (0-5) (Tobacco CGS),activity at 50 µM (Arabidopsis thaliana),Roquette assay spray (twice average) (Roquette),TEV (relative to DMSO) (TEV (relative to DMSO)),Roquette assay spray (single average) (Roquette)
COc1cccc(C(=O)Nc2cccc(-c3nc(C)cc(=O)[nH]3)c2)c1 [IML-11],3,4,3,–,–,–,–
Cc1cc(=O)[nH]c(-c2cccc(NC(=O)c3ccc(O)cc3F)c2)n1 [IML-14],3,4,3,–,–,–,–
Cc1cc(=O)[nH]c(-c2ccc(NC(=O)c3c(O)cccc3F)cc2)n1 [IML-15],3,4,1,–,–,–,–
Cc1cc(=O)[nH]c(-c2cccc(NC(=O)c3ccccc3OC(F)F)c2)n1 [IML-22],2,4,3,–,–,–,–
CCc1ccc(C(=O)Nc2cccc(-c3nc(C)cc(=O)[nH]3)c2)cc1 [IML-24],–,–,–,35%,2.0,–,–
COc1ccnc(C(=O)Nc2cccc(-c3nc(C)cc(=O)[nH]3)c2)c1 [IML-62],3,5,4,–,–,–,–
Cc1ccc(C(=O)Nc2cccc(-c3nc(C)cc(O)n3)c2)nc1 [IML-66],3,4,3,–,–,–,–
COc1cccc(C(=O)Nc2cccc(-n3cc(C)nc3O)c2)c1 [IML-67],3,4,–,–,–,–,–
COc1cccc(C(=O)Nc2cccc(-c3cc(C(F)(F)F)[nH]n3)c2)c1 [IML-70],3,5,–,–,–,–,–
CCc1ccccc1NC(=O)CNC(=O)c1ccc2nn[nH]c2c1 [IML-102],–,–,5,–,–,–,–
CC(=O)Nc1cccc(NC(=O)CNC(=O)c2ccc3nn[nH]c3c2)c1 [IML-110],2,4,5,–,–,–,–
CCc1ccccc1NC(=O)CNC(=O)c1ccc2c(c1)nnn2CC [IML-112],–,–,4,–,–,–,–
CCc1ccccc1NC(=O)CN(C)C(=O)c1ccc2nc[nH]c2c1 [IML-113],–,–,5,–,–,–,–
O=C(O)C1CN(C(=O)c2ccn(-c3ccccc3)n2)c2ccccc21 (stereo not shown) [IML-121],2,4,–,9%,4.0,0.28,3.0
O=C(O)C1CN(C(=O)c2cc(-c3ccccc3)[nH]n2)c2ccccc21 (stereo not shown) [IML-125],–,–,–,45%,–,–,–
O=C(CNC(=O)c1ccc2[nH]ncc2c1)Nc1ccccc1 [IML-134],3,4,3,67%,–,–,–
O=C(c1cc(-c2ccccc2)on1)N1CCc2cc([N+](=O)[O-])ccc21 [IML-161],–,–,–,–,–,0.14,–
O=C(O)CC1CN(C(=O)c2cc(-c3ccccc3)on2)c2ccccc21 (stereo not shown) [IML-164],–,–,–,4%,3.0,0.11,3.0
COc1cccc(-c2cc(C(=O)N3CC(C(=O)O)c4ccccc43)no2)c1 (stereo not shown) [IML-166],–,–,–,0%,4.0,0.06,2.0
O=C(O)C1CN(C(=O)c2cc(-c3ccccc3Cl)on2)c2ccccc21 (stereo not shown) [IML-167],–,–,–,0%,3.5,0.31,1.3
O=C(O)C1CN(C(=O)c2cc(-c3cccc(Cl)c3)on2)c2ccccc21 (stereo not shown) [IML-181],–,–,–,0%,–,0.22,0.5
O=C(c1ccc2[nH]ncc2c1)N1CCCC(Nc2ccccc2)C1 (stereo not shown) [IML-203],–,–,–,50%,–,–,–
O=C(c1ccc2[nH]ncc2c1)N1CCC(Nc2ccccc2)C1 (stereo not shown) [IML-204],–,–,–,35%,–,–,–
Cc1c(Cl)cccc1Nc1nc(-c2cccc(NC(=O)c3ccccc3)c2)cs1 [IML-211],4,–,–,–,–,–,–
COc1ccc(Cc2nc(-c3cccc(NC(=O)c4ccccc4F)c3)no2)cc1 [IML-217],3,5,2,–,–,–,–
COc1cccc(Nc2nc(-c3cccc(N4C(=O)c5ccccc5C4=O)c3)cs2)c1 [IML-218],3,5,–,–,–,–,–
O=C(Nc1cccc(-c2cn(Cc3ccccc3)nn2)c1)c1cc(C(F)(F)F)ccn1 [IML-223],5,5,–,–,–,–,–
O=C(Nc1cccc(-c2cn(Cc3ccccc3)nn2)c1)c1cccc(Cl)c1 [IML-232],–,–,–,68%,4.0,–,1.0
CCc1nc(-c2cncc(NC(=O)c3cccc(Cl)c3)c2)no1 [IML-234],–,–,–,–,3.0,0.75,1.5
COc1cccc(-c2cc(C(=O)N3C[C@H](C(=O)O)c4ccccc43)no2)c1 [IML-238],–,–,–,3%,2.0,0.29,–
